Reference: patent US20240269157A1, “COMPOSITIONS AND METHODS FOR OVERCOMING MICROENVIRONMENT-MEDIATED RESISTANCE VIA E-SELECTIN TARGETING” (GLYCOMIMETICS, INC., priority 2021, published 2024)

Experiments:
[1] = biological target: T1, recombinant human E-selectin-Fc chimera (Homo sapiens, UniProt P16581); assay: Adhesion of KG1 AML cells to E-selectin in vitro; assay type: cell-based
T1 construct: purchased R&D Systems 724-ES
Procedure: To further explore this hypothesis, the ability of Compound A to disrupt adhesion of KG1 AML cells to E-selectin was assessed using an in vitro assay. Recombinant human E-selectin-Fc chimera was purchased from R&D Systems (724-ES). KG1 AML cell line was purchased from ATCC (CRL-8031) and cultured in RPMI-1640 medium supplemented with 10% fetal bovine serum (FBS). Costar 96-well polystyrene medium binding assay plates were purchased from Corning (9017). 5-azacitidine (5-AZA) was purchased from Sigma-Aldrich (A2386). Calcein AM was purchased from Molecular Probes (C3100MP). FITC-conjugated antibody reactive with cutaneous lymphocyte antigen (HECA-452-FITC) was purchased from BD Pharmingen (555947).
The wells of a 96-well polystyrene plate were coated with 100 μL of 2 μg/mL recombinant human E-selectin-Fc chimera for 2 hours at 37° C., and then washed three times with Hank's Balanced Saline Solution (HBSS). KG1 cells were fluorescently labeled in culture medium with 3 μM Calcein AM for 60 minutes at 37° C., pelleted by centrifugation at 250×g for 10 minutes, then resuspended in HBSS to 2.5×10^5 cells per mL. Next, 2.5×10^4 cells were added to each well, and the cells were allowed to adhere for 45 minutes at room temperature. In some cases, cells were treated daily with 100 nM 5-azacitidine for 96 hours prior to labeling with Calcein AM and adhesion to E-selectin. Appropriate wells received 1 μL of 10 mM Compound A (final concentration in well: 100 μM) and after 30 minutes the wells were observed by fluorescence microscopy and pre-wash fluorescence measurements were taken using a FlexStation plate reader (excitation 485 nm, emission 538 nm, cutoff 530 nm). Subsequently, the wells were washed gently three times with HBSS and observations by fluorescence microscopy and fluorescence readings were repeated.

HUVEC co-cultured AML = assay: Cell cycle regulating protein expression in HUVEC co-cultured AML; assay type: cell-based, human
E-selectin = biological target: T2, E-selectin (Homo sapiens, UniProt P16581); assay: Compound A binding to E-selectin (KD)
T2 sequence (P16581 22-610): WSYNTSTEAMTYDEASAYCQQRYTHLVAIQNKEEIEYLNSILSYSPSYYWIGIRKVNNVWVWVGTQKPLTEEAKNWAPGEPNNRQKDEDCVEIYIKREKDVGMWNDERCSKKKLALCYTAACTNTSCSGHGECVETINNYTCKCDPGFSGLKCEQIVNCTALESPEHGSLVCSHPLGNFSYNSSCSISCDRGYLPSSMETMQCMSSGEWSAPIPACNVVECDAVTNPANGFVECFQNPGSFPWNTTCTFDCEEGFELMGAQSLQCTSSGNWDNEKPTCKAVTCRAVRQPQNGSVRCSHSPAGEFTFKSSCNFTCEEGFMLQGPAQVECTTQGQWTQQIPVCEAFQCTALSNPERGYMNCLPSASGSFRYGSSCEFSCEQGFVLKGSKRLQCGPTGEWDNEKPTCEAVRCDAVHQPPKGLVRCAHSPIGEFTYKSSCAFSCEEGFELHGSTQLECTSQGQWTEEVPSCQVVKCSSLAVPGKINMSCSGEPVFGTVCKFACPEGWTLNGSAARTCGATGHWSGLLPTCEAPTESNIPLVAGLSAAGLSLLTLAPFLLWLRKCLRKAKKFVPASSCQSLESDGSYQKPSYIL

KG1 AML tumor cells = assay: KG1 AML mouse model survival; assay type: in vivo, NSG mice; conditions: for median survival time (MST): Compound A 40 mg/kg i.p. qdx14, 5-azacitidine 5 mg/kg i.p. q3dx5
Procedure: A KG1 AML mouse model was also employed to determine whether the E-selectin antagonist Compound A could enhance the anti-tumor effect of 5-azacitidine. Female NSG mice (10 per cohort, six weeks of age) received i.v. injections of 5×10^6 KG1 AML tumor cells per mouse. Beginning 7 days post injection, mice were randomized into four cohorts and treated with either saline (i.p. (intraperitoneal), qdx14 (once daily for 14 days)), Compound A (40 mg/kg i.p. qdx14), 5-azacitidine (5 mg/kg i.p. q3dx5), or a combination of Compound A and 5-azacitidine. The efficacies of the treatments on survival were determined by the Kaplan-Meier estimator and log-rank statistics were used to test for significant differences in survival (FIG. 11). The median survival time (MST) of mice treated with 5-azacitidine was 88 days and statistically different from that of mice treated with saline (MST=69.5 days) or Compound A alone (MST=69 days). […] At study conclusion, (day 104 post tumor injection) 20% of mice treated with 5-azacitidine remained alive.

KG1 cells = assay: Flow cytometry of E-selectin-PE and HECA-452-FITC reactivity with KG1 cells; assay type: cell-based, human; conditions: 100 nM 5-AZA
Procedure: The increased adhesion of KG1 cells to E-selectin following treatment with 5-AZA was further examined by flow cytometry. Cells were cultured for 96 hours in the presence or absence of 100 nM 5-AZA. The binding of E-selectin-PE (E-selectin-Fc chimera conjugated with R-phycoerythrin) to the cells was determined by flow cytometry. In addition, the reactivity of the cells with HECA-452 monoclonal antibody, which specifically reacts with sialyl Lewis A/X carbohydrate structures and is a surrogate marker of E-selectin ligand, was determined by flow cytometry.
Specifically, KG1 cells were centrifuged at 250×g for 10 minutes, washed with HBSS containing 0.1% bovine serum albumin (HBSS/BSA), and resuspended in HBSS/BSA to approximately 3×10^6 cells per mL. The cells were treated with Fc receptor blocker (Miltenyi Biotech) and 100 μL aliquots (3×10^5 cells) were added to 12×75 mm Falcon polypropylene tubes. Cells were treated with either 5 μL E-selectin-Fc-PE reagent or 20 μL HECA-452-FITC antibody, placed at 4° C. for 45 minutes, washed with 2 mL then again with 1 mL HBSS/BSA. Final cell pellets were resuspended in 500 μl HBSS/BSA and analyzed on an Attune N×T flow cytometer. E-selectin was conjugated with R-phycoerythrin using the PE/R-phycoerythrin conjugation kit—Lightning-Link (Abcam ab102918).

T1 sequence (P16581 with tags, fused parts or gaps limits assumed): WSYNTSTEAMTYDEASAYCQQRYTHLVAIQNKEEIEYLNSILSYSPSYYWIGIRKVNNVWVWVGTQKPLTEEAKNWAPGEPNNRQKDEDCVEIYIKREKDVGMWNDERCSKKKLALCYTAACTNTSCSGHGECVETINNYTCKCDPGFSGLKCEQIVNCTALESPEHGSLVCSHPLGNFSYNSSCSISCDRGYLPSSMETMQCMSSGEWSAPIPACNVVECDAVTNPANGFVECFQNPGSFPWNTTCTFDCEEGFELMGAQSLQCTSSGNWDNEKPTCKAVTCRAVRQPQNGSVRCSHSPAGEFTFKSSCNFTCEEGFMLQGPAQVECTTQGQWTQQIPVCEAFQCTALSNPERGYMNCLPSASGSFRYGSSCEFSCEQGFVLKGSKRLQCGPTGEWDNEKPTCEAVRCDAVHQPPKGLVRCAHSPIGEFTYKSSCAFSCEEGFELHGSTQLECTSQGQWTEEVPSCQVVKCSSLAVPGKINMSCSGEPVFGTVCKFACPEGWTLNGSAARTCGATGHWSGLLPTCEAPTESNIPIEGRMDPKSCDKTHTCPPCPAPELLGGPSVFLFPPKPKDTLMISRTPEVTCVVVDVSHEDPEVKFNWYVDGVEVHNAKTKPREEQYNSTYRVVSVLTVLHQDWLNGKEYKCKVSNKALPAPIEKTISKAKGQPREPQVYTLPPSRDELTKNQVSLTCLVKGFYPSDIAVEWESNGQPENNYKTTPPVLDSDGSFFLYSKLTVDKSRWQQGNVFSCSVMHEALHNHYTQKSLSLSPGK

SMILES: CCC1CC(C(=O)NCCNC(=O)CCOCCOCCOCCOCCOCCOCCOCCOCCOCCOCCOCCOC)C[C@@H](O[C@@H]2OC(CO)[C@H](O)C(O[C@@H](CC3CCCCC3)C(=O)O)C2NC(C)=O)[C@@H]1OC1O[C@@H](C)[C@H](O)C(O)[C@@H]1O (some centres unmarked) [Compound A]
- fluorescence units after treatment of previously attached cells ([1]; 100 μM Compound A, 30 minutes, p=0.001): 55.2 fluorescence units
- expression of cell cycle regulating proteins including CDK4, CDK6, CyclinD1, and CyclinD2 (HUVEC co-cultured AML): increased
- Kd (E-selectin): ~450 nM
- outcome of mice (KG1 AML tumor cells; All mice treated): succumbed to progressive tumor growth
- median survival time (MST) (KG1 AML tumor cells): 69 days

SMILES: Nc1ncn([C@@H]2O[C@H](CO)[C@@H](O)[C@H]2O)c(=O)n1 [5-azacitidine]
- increase in adhesion to E-selectin ([1]; 100 nM 5-AZA 96 hours vs not treated): 57%
- fluorescence units of adhered cells ([1]; KG1 cells treated for 96 hours with 100 nM 5-AZA): 560.6 fluorescence units
- increase in MFI, HECA-452 (KG1 cells; 96 hours): 26%
- increase in median fluorescence intensity, E-selectin-PE (KG1 cells; 96 hours): 38%
- increase in the percentage of cells reactive with E-selectin-PE (KG1 cells; 96 hours): 38%
- increase in the percentage of cells reactive with HECA-452 (KG1 cells; 96 hours): 27%
- percentage of cells reactive with HECA-452 (KG1 cells; 96 hours (untreated 37.8%)): 47.9%
- percentage of cells reactive with E-selectin-PE (KG1 cells; 96 hours (untreated 38.4%)): 52.9%
- MFI, HECA-452 (KG1 cells; 96 hours (untreated 621)): 783
- median fluorescence intensity (MFI), E-selectin-PE (KG1 cells; 96 hours (untreated 940)): 1299
- median survival time (MST) (KG1 AML tumor cells): 88 days
- mice remaining alive at study conclusion (KG1 AML tumor cells; day 104 post tumor injection): 20%
